We go through eight compounds from US20150197802A1 (priority 2012, published 2015).

The subject of one data set is HPTC. Format: cell-based, human.
In a further data set the test system is renal proximal tubule. The conditions noted are these: cited from earlier work; for classification of the test compound with regard to nephrotoxicity: group of the test compound; for nephrotoxic effects in humans: clinical, clinically relevant concentrations.
Data set [1] has as its system human primary renal proximal tubular cells (HPTC). Put plainly: IL-6 and IL-8 expression (qPCR) in renal proximal tubular cells after 16 h exposure. On the technique in general: Quantitative PCR measures a nucleic acid by following its amplification.

Like-named read-outs stand apart in the source and are kept apart here.

As to `[Cl][Cd][Cl]` [CdCl2], in the data set on HPTC (two batches of HPTC, high doses (2.5 mg/ml gentamicin, 10 mg/ml CdCl2), FIG. 1), the “IL-8 expression, up-regulation compared with the other marker genes tested” value is given as “highest levels of up-regulation”. As for `C[C@@H]1C[C@H]2[C@@H]3CCC4=CC(=O)C=C[C@]4(C)[C@@]3(F)[C@@H](O)C[C@]2(C)[C@@]1(O)C(=O)CO` [dexamethasone], the “classification of the test compound with regard to nephrotoxicity” value (“classification of the test compound” below) in the data set on renal proximal tubule is reported as “not nephrotoxic”. Consider `OCCO` [ethylene glycol], for which the “classification of the test compound” value in the data set on renal proximal tubule is given as “non-PT-specific nephrotoxin”.

For `CN(C)[C@@H]1C(O)=C(C(N)=O)C(=O)[C@@]2(O)C(O)=C3C(=O)c4c(O)cccc4[C@@](C)(O)[C@H]3C[C@@H]12` [tetracycline], in the data set with renal proximal tubule, the “nephrotoxic effects in humans” value was “usually no obvious nephrotoxic effects, but can induce AKI and ESRD in patients with pre-existing kidney disease”. In addition, the “test result in the IL-6/IL-8 expression method (positive = predicted PT-specific nephrotoxin)” value in data set [1] (1 μg/ml to 1000 μg/ml, 16 h) is “positive”. Take `C[C@H](Cn1cnc2c(N)ncnc21)OCP(=O)(O)O` [tenofovir]: the “nephrotoxic effects in humans” value in the data set on renal proximal tubule was “injures the renal proximal tubules”. Regarding gentamicin, the “IL-8 expression, up-regulation compared with the other marker genes tested” value with HPTC is “highest levels of up-regulation”.

Turning to `N.N.[Cl][Pt][Cl]` [cisplatin], the cell death result in data set [1] (HPTC 1, highest concentration tested, dose-response FIG. 2) is reported as “massive cell death”. For the compound `[Cl][Cu][Cl]` [CuCl2], the “classification of the test compound” value in the data set with renal proximal tubule is recorded as “PT-specific nephrotoxin”.
